# From US9211310B2, “Use of a Chinese medicine composition in preparing medicaments for treating secondary prevention of myocardial infarction” (TASLY PHARMACEUTICAL GROUP CO., LTD, priority 2010, dated 2015)
# Tested on: patients after acute myocardial infarction
# Test: TCM symptom score, total and single (chest pain, chest tightness, short breath, fatigue, palpitation, spontaneous perspiration, pale complexion), same clinical trial
# Format: in vivo, human
# Set-up: total score of TCM symptom, Mean / total score of TCM symptom, Min / total score of TCM symptom, Max / total score of TCM symptom, Md / change of total score of TCM symptom, Mean / change of total score of TCM symptom, Max / change of total score of TCM symptom, Md: scale not given here
# Conditions: FAS
# From the text: 3508 patients who were in accordance with the diagnostic standards of AMI for 28 days to 2 years and differentiated as Qi deficiency and blood stagnation syndrome by TCM were studied. 0.5 g Chinese medicine composition prepared by the method of EXAMPLE 1 (Coded as QSYQ) was administrated half an hour after meal, 3 times per day.
# They included the overall survival time, angina pectoris score, TCM symptom score and life quality score, where angina pectoris score, TCM symptom score and life quality score were evaluated at randomization, in 1st, 3rd, 6th, 9th, 12th month after treatment and 18th month after follow-up.
# The analysis method referred to the angina pectoris score.
# [1] = 9 months after treatment-baseline
# [2] = 12 months after treatment-baseline
structure (smiles),measurement,setting,value
"CC(=O)Oc1ccccc1C(=O)O [Control group, aspirine]","change of pale complexion −1, number of patients",[1],59
same,"change of pale complexion −1, percent of patients",[1],(3.45%)
same,"change of palpitation 0, number of patients",[1],948
same,"change of palpitation 0, percent of patients",[1],(55.44%)
same,"change of palpitation 1, number of patients",[1],557
same,"change of palpitation 1, percent of patients",[1],(32.57%)
same,"change of palpitation 2, number of patients",[1],76
same,"change of palpitation 2, percent of patients",[1],(4.44%)
same,"change of palpitation 3, number of patients",[1],7
same,"change of palpitation 3, percent of patients",[1],(0.41%)
same,"change of palpitation −1, percent of patients",[1],(6.84%)
same,"change of palpitation −2, number of patients",[1],5
same,"change of palpitation −2, percent of patients",[1],(0.29%)
same,"change of palpitation −3, number of patients",[1],0
same,"change of palpitation −3, percent of patients",[1],(0.00%)
same,"change of short breath 0, % of patients",[1],(59.06%)
same,"change of short breath 0, number of patients",[1],1010
same,"change of short breath 2, % of patients",[1],(30.35%)
same,"change of short breath 2, number of patients",[1],519
same,"change of short breath 4, % of patients",[1],(3.57%)
same,"change of short breath 4, number of patients",[1],61
same,"change of short breath 6, % of patients",[1],(0.47%)
same,"change of short breath 6, number of patients",[1],8
same,"change of short breath −2, % of patients",[1],(6.26%)
same,"change of short breath −2, number of patients",[1],107
same,"change of short breath −4, % of patients",[1],(0.23%)
same,"change of short breath −4, number of patients",[1],4
same,"change of short breath −6, % of patients",[1],(0.06%)
same,"change of short breath −6, number of patients",[1],1
same,"change of spontaneous perspiration 0, number of patients",[1],910
same,"change of spontaneous perspiration 0, percent of patients",[1],(53.25%)
same,"change of spontaneous perspiration 1, number of patients",[1],491
same,"change of spontaneous perspiration 1, percent of patients",[1],(28.73%)
same,"change of spontaneous perspiration 2, number of patients",[1],113
same,"change of spontaneous perspiration 2, percent of patients",[1],(6.61%)
same,"change of spontaneous perspiration 3, number of patients",[1],31
same,"change of spontaneous perspiration 3, percent of patients",[1],(1.81%)
same,"change of spontaneous perspiration −1, number of patients",[1],154
same,"change of spontaneous perspiration −1, percent of patients",[1],(9.01%)
same,"change of spontaneous perspiration −2, number of patients",[1],10
same,"change of spontaneous perspiration −2, percent of patients",[1],(0.59%)
same,"change of spontaneous perspiration −3, number of patients",[1],0
same,"change of spontaneous perspiration −3, percent of patients",[1],(0.00%)
same,"change of total score of TCM symptom, Max",[1],15.00
same,"change of total score of TCM symptom, Md",[1],−4.00
same,"change of total score of TCM symptom, Mean",[1],−4.52
same,"change of total score of TCM symptom, Min",[1],−33.00
same,"change of short breath 0, number of patients",12 months after treatment,955
same,"distribution of total score of TCM symptom: Medium, number of patients",12 months after treatment,235
same,"distribution of total score of TCM symptom: Medium, percentage of patients",12 months after treatment,(16.31%)
same,"distribution of total score of TCM symptom: Mild, number of patients",12 months after treatment,1205
same,"distribution of total score of TCM symptom: Mild, percentage of patients",12 months after treatment,(83.62%)
same,"distribution of total score of TCM symptom: Severe, number of patients",12 months after treatment,1
same,"distribution of total score of TCM symptom: Severe, percentage of patients",12 months after treatment,(0.07%)
same,"fatigue score 0, % of patients",12 months after treatment,(36.67%)
same,"fatigue score 0, number of patients",12 months after treatment,630
same,"fatigue score 2, % of patients",12 months after treatment,(58.21%)
same,"fatigue score 2, number of patients",12 months after treatment,1000
same,"fatigue score 4, % of patients",12 months after treatment,(4.42%)
same,"fatigue score 4, number of patients",12 months after treatment,76
same,"fatigue score 6, % of patients",12 months after treatment,(0.70%)
same,"fatigue score 6, number of patients",12 months after treatment,12
same,"pale complexion score 0, number of patients",12 months after treatment,1011
same,"pale complexion score 0, percent of patients",12 months after treatment,(58.85%)
same,"pale complexion score 1, number of patients",12 months after treatment,590
same,"pale complexion score 1, percent of patients",12 months after treatment,(34.34%)
same,"pale complexion score 2, number of patients",12 months after treatment,104
same,"pale complexion score 2, percent of patients",12 months after treatment,(6.05%)
same,"pale complexion score 3, number of patients",12 months after treatment,13
same,"pale complexion score 3, percent of patients",12 months after treatment,(0.76%)
same,"palpitation score 0, number of patients",12 months after treatment,669
same,"palpitation score 0, percent of patients",12 months after treatment,(38.94%)
same,"palpitation score 2, number of patients",12 months after treatment,892
same,"palpitation score 2, percent of patients",12 months after treatment,(51.92%)
same,"palpitation score 4, number of patients",12 months after treatment,138
same,"palpitation score 4, percent of patients",12 months after treatment,(8.03%)
same,"palpitation score 6, number of patients",12 months after treatment,19
same,"palpitation score 6, percent of patients",12 months after treatment,(1.11%)
same,"short breath score 0, % of patients",12 months after treatment,(31.72%)
same,"short breath score 0, number of patients",12 months after treatment,545
same,"short breath score 3, % of patients",12 months after treatment,(57.92%)
same,"short breath score 3, number of patients",12 months after treatment,995
same,"short breath score 6, % of patients",12 months after treatment,(10.07%)
same,"short breath score 6, number of patients",12 months after treatment,173
same,"short breath score 9, % of patients",12 months after treatment,(0.29%)
same,"short breath score 9, number of patients",12 months after treatment,5
same,"spontaneous perspiration score 0, number of patients",12 months after treatment,845
same,"spontaneous perspiration score 0, percent of patients",12 months after treatment,(49.19%)
same,"spontaneous perspiration score 1, number of patients",12 months after treatment,804
same,"spontaneous perspiration score 1, percent of patients",12 months after treatment,(46.80%)
same,"spontaneous perspiration score 2, number of patients",12 months after treatment,58
same,"spontaneous perspiration score 2, percent of patients",12 months after treatment,(3.38%)
same,"spontaneous perspiration score 3, number of patients",12 months after treatment,11
same,"spontaneous perspiration score 3, percent of patients",12 months after treatment,(0.64%)
same,"total score of TCM symptom, Max",12 months after treatment,37.00
same,"total score of TCM symptom, Md",12 months after treatment,8.00
same,"total score of TCM symptom, Mean",12 months after treatment,8.41
same,"total score of TCM symptom, Min",12 months after treatment,0.00
same,"change of fatigue 0, % of patients",[2],(47.08%)
same,"change of fatigue 0, number of patients",[2],805
same,"change of fatigue 2, % of patients",[2],(35.38%)
same,"change of fatigue 2, number of patients",[2],605
same,"change of fatigue 4, % of patients",[2],(9.59%)
same,"change of fatigue 4, number of patients",[2],164
same,"change of fatigue 6, % of patients",[2],(1.46%)
same,"change of fatigue 6, number of patients",[2],25
same,"change of fatigue −2, % of patients",[2],(5.85%)
same,"change of fatigue −2, number of patients",[2],100
same,"change of fatigue −4, % of patients",[2],(0.64%)
same,"change of fatigue −4, number of patients",[2],11
same,"change of fatigue −6, % of patients",[2],(0.00%)
same,"change of fatigue −6, number of patients",[2],0
same,"change of pale complexion 0, number of patients",[2],1202
same,"change of pale complexion 0, percent of patients",[2],(70.37%)
same,"change of pale complexion 1, number of patients",[2],450
same,"change of pale complexion 1, percent of patients",[2],(26.35%)
same,"change of pale complexion −1, number of patients",[2],56
same,"change of pale complexion −1, percent of patients",[2],(3.28%)
same,"change of palpitation 0, number of patients",[2],882
same,"change of palpitation 0, percent of patients",[2],(51.58%)
same,"change of palpitation 1, number of patients",[2],602
same,"change of palpitation 1, percent of patients",[2],(35.20%)
same,"change of palpitation 2, number of patients",[2],102
same,"change of palpitation 2, percent of patients",[2],(5.96%)
